Activity calls are given as the source filed them. No cut-off for these calls is given here.
Experiments:
Quadruplex DNA [1] = assay: Binding affinity to human hybrid Tel23 G4 quadruplex DNA assessed as dissociation constant by MST analysis; format: nucleic-acid assay
NCI-H322M = assay: Antiproliferative activity against human NCI-H322M cells assessed as growth inhibition incubated for 48 hrs by SRB assay; format: functional
Quadruplex DNA [2] = assay: Thermal stabilization of human c-Myc G4 quadruplex DNA assessed as change in melting temperature (deltaT1/2) incubated for 10 mins by circular dichroism spectroscopic analysis (reference value: 70.5 +/- 0.1 degreeC); format: nucleic-acid assay
HT-29 = assay: Antiproliferative activity against human HT-29 cells assessed as growth inhibition incubated for 48 hrs by SRB assay; format: functional
Quadruplex DNA [3] = assay: Thermal stabilization of FAM labeled human Tel21T G4 quadruplex DNA assessed as change in melting temperature (deltaT1/2) in presence of unlabeled duplex competitor (ds26) by FRET assay; format: nucleic-acid assay
A498 = assay: Antiproliferative activity against human A498 cells assessed as growth inhibition incubated for 48 hrs by SRB assay; format: functional
dsDNA [4] = assay: Binding affinity to human […] Tel26-hy DNA assessed as dissociation constant by MST analysis; format: nucleic-acid assay
Hs-578T = assay: Antiproliferative activity against human Hs-578T cells assessed as growth inhibition incubated for 48 hrs by SRB assay; format: functional
RXF 393 = assay: Antiproliferative activity against human RXF 393 cells assessed as growth inhibition incubated for 48 hrs by SRB assay; format: functional
Quadruplex DNA [5] = assay: Binding affinity to human parallel c-Kit2 G4 quadruplex DNA assessed as dissociation constant by MST analysis; format: nucleic-acid assay
SK-MEL-2 = assay: Antiproliferative activity against human SK-MEL-2 cells assessed as growth inhibition incubated for 48 hrs by SRB assay; format: functional
IGROV-1 = assay: Antiproliferative activity against human IGROV-1 cells assessed as growth inhibition incubated for 48 hrs by SRB assay; format: functional
Homo sapiens = species: Homo sapiens; assay: Inhibition of human Topoisomerase II assessed as relaxation of supercoiled plasmid pBR322 DNA at 2.5 uM incubated for 1 hr by ethidium bromide staining based agarose gel electrophoresis
Quadruplex DNA [6] = assay: Thermal stabilization of FAM labeled human Tel21T G4 quadruplex DNA assessed as change in melting temperature (deltaT1/2) in presence of 50 uM unlabeled duplex competitor (ds26) by FRET assay; format: nucleic-acid assay
Quadruplex DNA [7] = assay: Thermal stabilization of human Tel26-hy G4 quadruplex DNA assessed as change in melting temperature (deltaT1/2) incubated for 10 mins by circular dichroism spectroscopic analysis (reference value: 55.4 +/- 0.1 degreeC); format: nucleic-acid assay
SR = assay: Antiproliferative activity against human SR cells assessed as growth inhibition incubated for 48 hrs by SRB assay; format: functional
MDA-MB-231 = assay: Antiproliferative activity against human MDA-MB-231 cells assessed as growth inhibition incubated for 48 hrs by SRB assay; format: functional
dsDNA [8] = assay: Binding affinity to human duplex ds26 DNA assessed as dissociation constant by MST analysis; format: nucleic-acid assay
NCI-H522 = assay: Antiproliferative activity against human NCI-H522 cells assessed as growth inhibition incubated for 48 hrs by SRB assay; format: functional
HL-60 = assay: Antiproliferative activity against human HL-60 cells assessed as growth inhibition incubated for 48 hrs by SRB assay; format: functional
SK-MEL-5 = assay: Antiproliferative activity against human SK-MEL-5 cells assessed as growth inhibition incubated for 48 hrs by SRB assay; format: functional
SW-620 = assay: Antiproliferative activity against human SW620 cells assessed as growth inhibition incubated for 48 hrs by SRB assay; format: functional
SF-539 = assay: Antiproliferative activity against human SF-539 cells assessed as growth inhibition incubated for 48 hrs by SRB assay; format: functional
TK-10 = assay: Antiproliferative activity against human TK-10 cells assessed as growth inhibition incubated for 48 hrs by SRB assay; format: functional
SF-268 = assay: Antiproliferative activity against human SF-268 cells assessed as growth inhibition incubated for 48 hrs by SRB assay; format: functional
T47D = assay: Antiproliferative activity against human T47D cells assessed as growth inhibition incubated for 48 hrs by SRB assay; format: functional
OVCAR-8 = assay: Antiproliferative activity against human OVCAR-8 cells assessed as growth inhibition incubated for 48 hrs by SRB assay; format: functional
Quadruplex DNA [9] = assay: Thermal stabilization of FAM labeled human Tel21T G4 quadruplex DNA assessed as change in melting temperature (deltaT1/2) in presence of 15 uM unlabeled duplex competitor (ds26) by FRET assay; format: nucleic-acid assay
SNB-75 = assay: Antiproliferative activity against human SNB-75 cells assessed as growth inhibition incubated for 48 hrs by SRB assay; format: functional
K562 = assay: Antiproliferative activity against human K562 cells assessed as growth inhibition incubated for 48 hrs by SRB assay; format: functional
Quadruplex DNA [10] = assay: Binding affinity to human hybrid c-Myc G4 quadruplex DNA assessed as dissociation constant by MST analysis; format: nucleic-acid assay
CAKI-1 = assay: Antiproliferative activity against human CAKI-1 cells assessed as growth inhibition incubated for 48 hrs by SRB assay; format: functional
HCT-116 = assay: Induction of DNA damage in human HCT-116 cells assessed as increase in gammaH2AX level incubated for 24 hrs by immunofluorescence staining based analysis; format: functional, cell-based

SMILES	GI (NCI-H322M)	ΔTm (Quadruplex DNA [2])	GI (HT-29)	GI (A498)	GI (Hs-578T)	GI (RXF 393)	GI (SK-MEL-2)	GI (IGROV-1)	inhibition (Homo sapiens)	ΔTm (Quadruplex DNA [7])	GI (SR)	GI (MDA-MB-231)	GI (HL-60)	GI (SK-MEL-5)	GI (SW-620)	GI (SF-539)	GI (TK-10)	GI (SF-268)	GI (T47D)	GI (OVCAR-8)	further results
CCN(CC)CCn1c2ccc(OC)cc2c2sc3cc(OC)ccc3c(=O)c21	1.59 µM	> 20 °C	1.52 µM	1.12 µM	1.96 µM	1.4 µM	2.1 µM	1.53 µM	Active	10.4 °C	0.704 µM	1.54 µM	1.77 µM	1.74 µM	0.825 µM	1.66 µM	2.33 µM	1.87 µM	2 µM	1.93 µM	Kd (Quadruplex DNA [1]): 9000 nM; ΔTm (Quadruplex DNA [3]): 12.6 °C; Kd (dsDNA [4]): 23000 nM; Kd (Quadruplex DNA [5]): 300 nM; ΔTm (Quadruplex DNA [6]): 1.6 °C; Kd (dsDNA [8]): 1300 nM; GI (NCI-H522): 1.71 µM; ΔTm (Quadruplex DNA [9]): 1.9 °C; GI (SNB-75): 1.11 µM; GI (K562): 0.728 µM; Kd (Quadruplex DNA [10]): 2100 nM; GI (CAKI-1): 1.65 µM; Activity (HCT-116): Active
CCN(CC)CCn1c2ccc(O)cc2c2sc3cc(OC)ccc3c(=O)c21	6.89 µM	> 20 °C	1.75 µM	3.08 µM	1.95 µM	1.31 µM	9.15 µM	1.59 µM	Active	7.5 °C	1.11 µM	1.61 µM	1.72 µM	1.74 µM	0.675 µM	1.76 µM	9.05 µM	7.34 µM	14.2 µM	2.1 µM	GI (SNB-75): 2.39 µM; GI (K562): 1.24 µM; GI (CAKI-1): 3.73 µM; Activity (HCT-116): Active
